Results as given in patent US10906940B2, “Antimicrobial peptides, pharmaceutical compositions, and methods of use thereof” (priority 2014, dated 2021).
In brackets after ≈: the same amount, converted by molar mass. Read-outs that look alike come from different tables or passages of the source.

What was measured:
[1] = tested on: S. aureus 10; experiment: microbe, parasite or virus in culture; assay type: cell-based, Staphylococcus aureus
From the text: (§1) The same MIC assay as in Example 6 was used to determine the antimicrobial susceptibility of Compound A, L-form (FIG. 15), and several variants. One variant was Compound A, D-form, with D-Lysine at position 7. Compound B is a variant in the fatty acid chain, with a fatty acid chain composition of C15H29O, and having D-Lys at position 7. Compound C is a variant in the fatty acid chain with a fatty acid chain composition of C11H21O, and having D-Lys at position 7. Variant D is a sequence variant with Phe at position 6 of the cyclic peptide, and having D-Lys at position 7. All variants were chemically synthesized.

[2] = tested on: S. aureus 12; experiment: microbe, parasite or virus in culture; assay type: cell-based, Staphylococcus aureus
From the text: as §1

[3] = tested on: S. aureus 14; experiment: microbe, parasite or virus in culture; assay type: cell-based, Staphylococcus aureus
From the text: as §1

[4] = tested on: S. aureus 19; experiment: microbe, parasite or virus in culture; assay type: cell-based, Staphylococcus aureus
From the text: as §1

[5] = tested on: S. aureus 2; experiment: microbe, parasite or virus in culture; assay type: cell-based, Staphylococcus aureus
From the text: as §1

[6] = tested on: S. aureus 4; experiment: microbe, parasite or virus in culture; assay type: cell-based, Staphylococcus aureus
From the text: as §1

[7] = tested on: S. aureus 6; experiment: microbe, parasite or virus in culture; assay type: cell-based, Staphylococcus aureus
From the text: as §1

[8] = tested on: S. aureus 8; experiment: microbe, parasite or virus in culture; assay type: cell-based, Staphylococcus aureus
From the text: as §1

[9] = tested on: E. faecium ATCC 2320; experiment: microbe, parasite or virus in culture; assay type: cell-based; settings: Enterococcus faecium, ATCC2320
From the text: as §1

[10] = tested on: E. faecium ATCC 700221; experiment: microbe, parasite or virus in culture; assay type: cell-based; settings: Enterococcus faecium, ATCC700221
From the text: as §1

[11] = tested on: E. faecium BAA-2318; experiment: microbe, parasite or virus in culture; assay type: cell-based; settings: Enterococcus faecium, BAA2318
From the text: as §1

[12] = tested on: E. faecalis ATCC 51575; experiment: microbe, parasite or virus in culture; assay type: cell-based, Enterococcus faecalis; settings: Enterococcus faecalis, ATCC51575
From the text: as §1

[13] = tested on: E. faecalis BAA-2365; experiment: microbe, parasite or virus in culture; assay type: cell-based, Enterococcus faecalis; settings: Enterococcus faecalis, BAA2365
From the text: as §1

[14] = tested on: E. faecalis ATCC 29212; experiment: microbe, parasite or virus in culture; settings: Enterococcus faecalis, ATCC29212
[15] = tested on: Listeria monocytogenes R2-583; experiment: microbe, parasite or virus in culture; settings: R2583
[16] = tested on: S. aureus ATCC25923; experiment: microbe, parasite or virus in culture; settings: Staphylococcus aureus
[17] = tested on: S. aureus ATCC 29213; experiment: microbe, parasite or virus in culture; settings: Staphylococcus aureus, ATCC29213
[18] = tested on: Enterobacter cloacae SBJ-9395; assay type: cell-based
From the text: as §1

[19] = tested on: Serratia marcescens SAMN 04276914; assay type: cell-based; settings: Serratia marcescens SAMN 04276914
From the text: as §1

[20] = tested on: Serratia marcescens SAMN 04276915; assay type: cell-based; settings: Serratia marcescens SAMN 04276915
From the text: as §1

[21] = tested on: Serratia marcescens SAMN04022954; assay type: cell-based; settings: Serratia marcescens SAMN04022954
From the text: as §1

[22] = tested on: Serratia marcescens SBJ-8283; assay type: cell-based
From the text: as §1

[23] = tested on: Serratia marcescens SBJ-9047; assay type: cell-based
From the text: as §1

[24] = tested on: Salmonella enterica serovar Montevideo strain 29N; experiment: Spot-on-lawn bioactivity assay (zone of inhibition); assay type: cell-based; settings: 10 μL spotted on lawn of 10^6 cells of S. Montevideo strain 29N, 24 hour incubation
[25] = tested on: E. coli ATCC 25853; settings: E. coli ATCC 25853
[26] = tested on: Salmonella Newport #17; settings: Salmonella Newport #17
[27] = tested on: Enterobacter sakazakii E784; settings: Enterobacter sakazakii E784
[28] = tested on: E. coli O157: H7 EDL933
[29] = tested on: Klebsiella pneumoniae SBJ-9149; settings: Klebsiella pneumoniae SBJ-9149 (clinical isolate)
[30] = tested on: Enterobacter cloacae SBJ-7612; settings: Enterobacter cloacae SBJ-7612 (clinical isolate)
[31] = tested on: Klebsiella pneumoniae SBJ-9483; settings: Klebsiella pneumoniae SBJ-9483 (clinical isolate)
[32] = tested on: Klebsiella pneumoniae SBJ-9388; settings: Klebsiella pneumoniae SBJ-9388 (clinical isolate)
[33] = tested on: Enterobacter cloacae SBJ-9222; settings: Enterobacter cloacae SBJ-9222 (clinical isolate)
[34] = tested on: P. aeruginosa ATCC-27853; settings: P. aeruginosa ATCC-27853

CN[C@H](CC(C)C)C(=O)N[C@H]1C(=O)N[C@@H](CC(N)=O)C(=O)N[C@H]2C(=O)N[C@H]3C(=O)N[C@H](C(=O)N[C@H](C(=O)O)c4cc(O)cc(O)c4-c4cc3ccc4O)[C@H](O)c3ccc(c(Cl)c3)Oc3cc2cc(c3O[C@@H]2O[C@H](CO)[C@@H](O)[C@H](O)[C@H]2O[C@H]2C[C@](C)(N)[C@H](O)[C@H](C)O2)Oc2ccc(cc2Cl)[C@H]1O [Vancomycin, vancomycin, reference compound]
MIC ([1]; S. aureus 10 (MRSA, clinical isolate)): 1 µg/mL (≈ 0.69 µM) | MIC ([1]; Staphylococcus aureus, MRSA): 1 µg/mL (≈ 0.69 µM) | MIC ([2]; S. aureus 12 (MRSA, clinical isolate)): 1 µg/mL (≈ 0.69 µM) | MIC ([2]; Staphylococcus aureus, MRSA): 1 µg/mL (≈ 0.69 µM) | MIC ([3]; S. aureus 14 (MRSA, clinical isolate)): 1 µg/mL (≈ 0.69 µM) | MIC ([3]; Staphylococcus aureus, MRSA): 1 µg/mL (≈ 0.69 µM) | MIC ([4]; S. aureus 19 (MRSA, clinical isolate)): 1 µg/mL (≈ 0.69 µM) | MIC ([4]; Staphylococcus aureus, MRSA): 1 µg/mL (≈ 0.69 µM) | MIC ([5]; S. aureus 2 (MRSA, clinical isolate)): 1 µg/mL (≈ 0.69 µM) | MIC ([5]; Staphylococcus aureus, MRSA): 1 µg/mL (≈ 0.69 µM) | MIC ([6]; S. aureus 4 (MRSA, clinical isolate)): 1 µg/mL (≈ 0.69 µM) | MIC ([6]; Staphylococcus aureus, MRSA): 1 µg/mL (≈ 0.69 µM) | MIC ([7]; S. aureus 6 (MRSA, clinical isolate)): 1 µg/mL (≈ 0.69 µM) | MIC ([7]; Staphylococcus aureus, MRSA): 1 µg/mL (≈ 0.69 µM) | MIC ([8]; S. aureus 8 (MRSA, clinical isolate)): 1 µg/mL (≈ 0.69 µM) | MIC ([8]; Staphylococcus aureus, MRSA): 1 µg/mL (≈ 0.69 µM) | MIC [9]: ≥ 256 µg/mL | MIC [10]: ≥ 256 µg/mL | MIC [11]: ≥ 256 µg/mL | MIC [12]: ≥ 256 µg/mL | MIC [13]: ≥ 256 µg/mL | MIC [14]: 2 µg/mL (≈ 1.38 µM) | MIC [15]: 1 µg/mL (≈ 0.69 µM) | MIC [16]: 1 µg/mL (≈ 0.69 µM) | MIC [17]: 1 µg/mL (≈ 0.69 µM)

Polymyxin B [reference compound]
MIC ([18]; Enterobacter cloacae SBJ-9395): >128 µg/mL | MIC ([18]; Enterobacter cloacae SBJ-9395 (CRE, clinical isolate)): >128 µg/mL | MIC [19]: ≥256 µg/mL | MIC [20]: ≥256 µg/mL | MIC [21]: ≥256 µg/mL | MIC ([22]; Serratia marcescens SBJ-8283): >128 µg/mL | MIC ([22]; Serratia marcescens SBJ-8283 (CRE, clinical isolate)): >128 µg/mL | MIC ([23]; Serratia marcescens SBJ-9047): >128 µg/mL | MIC ([23]; Serratia marcescens SBJ-9047 (CRE, clinical isolate)): >128 µg/mL | minimum inhibitory concentration to show clear ZI [24]: 4 µg/mL | MIC [25]: 0.5 µg/mL | MIC [26]: 1 µg/mL | MIC [27]: 0.5 µg/mL | MIC [28]: 0.5 µg/mL | MIC [29]: 0.5 µg/mL | MIC [30]: 1 µg/mL | MIC [31]: 0.5 µg/mL | MIC [32]: 0.5 µg/mL | MIC [33]: 1 µg/mL | MIC [34]: 1 µg/mL
